Molecules are shown by their SMILES.

The conditions of data set [1]: parent nucleosides, from previous publications; cited from earlier work.
A further data set has as its target DncV (Vibrio cholerae serotype O1, UniProt Q9KVG7). Kind of data set: DncV-mediated CDN synthesis, kinetics by HPLC. The format is biochemical.
The next data set concerns the target rocR (Pseudomonas aeruginosa, UniProt Q9HX69). In words: rocR-mediated CDN hydrolysis monitored by HPLC. The format is biochemical, P. aeruginosa. The settings on record: 100 nM rocR, 10 μM CDN.
Where [2] appears, read: 500 μM NTP, 37 °C, HPLC, CIAP-quenched, mean ± SD.

rocR, sequence (Q9HX69 whole entry): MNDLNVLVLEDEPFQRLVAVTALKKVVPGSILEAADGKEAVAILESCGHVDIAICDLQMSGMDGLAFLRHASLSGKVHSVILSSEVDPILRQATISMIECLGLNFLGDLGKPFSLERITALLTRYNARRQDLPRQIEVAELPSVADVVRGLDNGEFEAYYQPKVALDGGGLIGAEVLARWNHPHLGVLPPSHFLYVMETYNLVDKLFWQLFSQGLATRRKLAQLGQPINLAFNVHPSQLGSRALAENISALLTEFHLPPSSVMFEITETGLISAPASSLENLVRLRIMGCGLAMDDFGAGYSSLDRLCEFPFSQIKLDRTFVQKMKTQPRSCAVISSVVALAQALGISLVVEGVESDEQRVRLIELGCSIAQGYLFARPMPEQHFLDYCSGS
DncV, sequence (Q9KVG7 whole entry): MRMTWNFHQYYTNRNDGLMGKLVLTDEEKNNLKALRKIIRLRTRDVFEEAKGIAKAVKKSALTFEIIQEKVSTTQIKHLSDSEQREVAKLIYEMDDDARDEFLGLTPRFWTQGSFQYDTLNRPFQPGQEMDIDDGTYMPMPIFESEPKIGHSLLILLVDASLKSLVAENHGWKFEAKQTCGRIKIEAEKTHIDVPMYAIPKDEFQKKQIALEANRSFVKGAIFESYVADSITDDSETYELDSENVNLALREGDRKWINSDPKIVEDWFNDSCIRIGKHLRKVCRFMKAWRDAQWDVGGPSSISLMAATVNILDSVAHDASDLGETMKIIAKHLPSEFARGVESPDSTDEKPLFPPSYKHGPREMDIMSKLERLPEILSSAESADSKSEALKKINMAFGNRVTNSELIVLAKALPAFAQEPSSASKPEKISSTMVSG

Turning to `Nc1nc2c([C@@H]3O[C@H](CO)[C@@H](O)[C@H]3O)snc2c(=O)[nH]1` [^tzG], in data set [1], the ε is 4870 M⁻¹ cm⁻¹, the “λabs^max” value was 333 nm, the “λem^max” value is on record as 459 nm and the “ϕ (emission quantum yield)” value is reported as 2.5×10^−1. In addition, the ϕε in data set [1] was 1203.
With `Nc1nc2c(ncn2[C@@H]2O[C@@H]3COP(=O)(O)O[C@H]4[C@@H](O)[C@H](n5cnc6c(=O)[nH]c(N)nc65)O[C@@H]4COP(=O)(O)O[C@H]3[C@H]2O)c(=O)[nH]1` [c-di-GMP], on DncV (setting [2]), the “k1 (formation of first phosphodiester linkage, S to I1)” value was “(7.1 ±2.3) ×10^−6 μM^−1s^−1”; the “k2 (cyclization of intermediate I1 to product CDN)” value is reported as “(7.4±2.1) ×10^−2 s^−1”; the “k3 (degradation of intermediate pppNpN to pNpN)” value is “(6.4±0.3) ×10^−4 s^−1”. The same molecule yielded a k2/k3 at DncV (product formation versus degradation of the intermediate) of 116. In addition, the “time to complete cleavage by rocR” value at rocR was roughly 3 min. In addition, at rocR (mean ± SD), the “k1 (enzyme/substrate association)” value came out at 3.96e+06 ± 70000 M⁻¹ s⁻¹, the “k2 (cleavage reaction)” value was determined as 0.76 ± 0.03 s⁻¹ and the “k−1 (enzyme/substrate dissociation)” value was determined as 1.15 ± 0.21 s⁻¹.

The values above are taken from article PMC7220823 (Chemistry (Weinheim an der Bergstrasse, Germany), 2020).
